Reference: article PMC7044277 (Nature Communications, 2020)
Where “and” joins values, the source holds several entries; their conditions need not be identical. Equal entries are not always repeated.

Key:
Format in all cases: cell-based
[1] = biological target: 320 non-olfactory GPCRs (Homo sapiens, UniProt P11229)
[2] = biological target: T1, 320 non-olfactory GPCRs (Homo sapiens, UniProt Q86SM5); conditions: receptor MRGPRG; replicate values, Fig_4g
T1 construct: expressed in transfected cells; host or cells: HTLA cells

[3] = biological target: 320 non-olfactory GPCRs (Homo sapiens, UniProt P41146); conditions: receptor OPRL1; replicate values, Fig_4g
[4] = biological target: 320 non-olfactory GPCRs (Homo sapiens, UniProt P21728)
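For Fold of Basal in this document: compound tested at 1 µM final concentration.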
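For GPCRome agonism screen response in this document: fold over basal response of each receptor without drug.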

Chain of 320 non-olfactory GPCRs (Homo sapiens, UniProt P11229) (P11229 whole entry): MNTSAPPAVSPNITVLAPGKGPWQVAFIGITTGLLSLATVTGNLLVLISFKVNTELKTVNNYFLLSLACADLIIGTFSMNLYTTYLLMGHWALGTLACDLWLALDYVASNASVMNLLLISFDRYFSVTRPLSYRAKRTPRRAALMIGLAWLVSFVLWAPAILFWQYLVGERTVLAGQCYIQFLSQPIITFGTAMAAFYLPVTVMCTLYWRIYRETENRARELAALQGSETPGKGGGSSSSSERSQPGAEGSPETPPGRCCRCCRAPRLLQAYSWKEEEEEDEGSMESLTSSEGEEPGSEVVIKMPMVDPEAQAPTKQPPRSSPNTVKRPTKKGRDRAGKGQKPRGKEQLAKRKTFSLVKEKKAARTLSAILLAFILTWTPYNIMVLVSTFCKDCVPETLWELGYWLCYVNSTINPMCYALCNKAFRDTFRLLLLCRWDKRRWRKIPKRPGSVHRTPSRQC
T1 sequence (Q86SM5 whole entry): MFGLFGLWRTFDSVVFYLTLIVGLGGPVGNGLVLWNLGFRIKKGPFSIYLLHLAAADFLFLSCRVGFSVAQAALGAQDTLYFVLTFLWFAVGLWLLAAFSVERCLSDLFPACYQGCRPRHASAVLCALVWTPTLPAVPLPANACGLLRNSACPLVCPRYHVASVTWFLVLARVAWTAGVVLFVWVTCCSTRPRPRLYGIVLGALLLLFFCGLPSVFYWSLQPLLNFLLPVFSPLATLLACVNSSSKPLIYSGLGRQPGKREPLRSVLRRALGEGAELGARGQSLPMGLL
Chain of 320 non-olfactory GPCRs (Homo sapiens, UniProt P21728) (P21728 whole entry): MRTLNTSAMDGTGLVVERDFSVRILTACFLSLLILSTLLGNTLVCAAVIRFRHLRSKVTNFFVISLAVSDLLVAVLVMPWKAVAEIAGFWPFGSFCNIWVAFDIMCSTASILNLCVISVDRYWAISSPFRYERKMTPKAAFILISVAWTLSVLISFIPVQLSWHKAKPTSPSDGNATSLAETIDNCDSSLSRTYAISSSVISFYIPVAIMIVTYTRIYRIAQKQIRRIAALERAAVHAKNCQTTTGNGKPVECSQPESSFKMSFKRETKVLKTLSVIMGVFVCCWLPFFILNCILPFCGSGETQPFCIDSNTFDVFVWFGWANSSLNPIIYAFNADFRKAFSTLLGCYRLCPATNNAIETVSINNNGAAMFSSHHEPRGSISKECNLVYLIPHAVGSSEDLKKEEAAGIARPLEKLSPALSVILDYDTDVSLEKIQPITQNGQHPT
Chain of 320 non-olfactory GPCRs (Homo sapiens, UniProt P41146) (P41146 whole entry): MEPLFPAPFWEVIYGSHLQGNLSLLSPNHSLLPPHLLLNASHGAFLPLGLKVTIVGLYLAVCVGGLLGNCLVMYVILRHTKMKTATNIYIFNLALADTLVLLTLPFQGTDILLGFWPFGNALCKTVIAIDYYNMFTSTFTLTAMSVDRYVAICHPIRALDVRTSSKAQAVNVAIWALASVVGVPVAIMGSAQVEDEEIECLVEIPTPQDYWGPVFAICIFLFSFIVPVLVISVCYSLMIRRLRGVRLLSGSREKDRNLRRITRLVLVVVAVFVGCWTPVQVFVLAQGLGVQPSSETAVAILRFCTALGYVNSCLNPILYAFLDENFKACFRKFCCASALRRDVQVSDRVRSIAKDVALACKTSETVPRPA

CCOc1cccc2cc(C(C)NCC3(O)CCCCC3)oc12 (stereo not shown) [O4LE6]
Fold of Basal [1]: 0.6962 and 0.7878 and 0.5081 and 0.6515 | GPCRome agonism screen response [2]: 0.767 and 0.7489 and 0.544 and 0.824 | GPCRome agonism screen response [3]: 0.6174 and 0.5517 and 0.7699 and 0.8115 | Fold of Basal [4]: 0.7632 and 1.021 and 0.953 and 0.8141
